From patent US12209096B2, “Compounds and compositions for inducing chondrogenesis” (NOVARTIS AG, priority 2017, dated 2025) come the findings set out here.

This test concerns NHACs. The experiment in a line: calcium flux assay. The class given is cell-based, human. Particulars: for Emax: read-out: (A) % Efficacy. The method, boiled down: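 FLIPR fluorescence (ex 470–495 nm, em 515–575 nm) was read before and after compound dispense at the indicated dose. Chondrocytes (NHACs), 2000 cells/well, had been dye-loaded 24 h after plating with Calcium 5 in HBSS/HEPES plus 5 mM probenecid, 1 h, room temperature.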

pEC50: −log10 of the molar value. Like-named read-outs stand apart in the source and are kept apart here.

As to `Cc1cc([C@@H]2[C@@H]3O[C@@H](C[C@H]3O)[C@@H]2C(=O)Nc2cnc(Cl)c(Cl)c2)ccn1` (single isomer, unassigned) [Example 7], for the setting “Homo sapiens”, the pEC50 – broadly, the negative decadic logarithm of the EC50, by convention in mol/L – was below 4.30 and the Emax was 0%.

As to `COc1cc([C@H]2[C@H]3O[C@H](C[C@@H]3O)[C@H]2C(=O)Nc2ccc(Cl)c(Cl)c2)ccn1` (single isomer, unassigned) [Example 49a], where the note is “Homo sapiens”, the pEC50 was 6.08 and the Emax stood at 53%.

For `Cc1ccc([C@H]2[C@H]3O[C@H](C[C@@H]3F)[C@H]2C(=O)Nc2ccc(Cl)c(Cl)c2)cn1` [Example 21, (1R,2S,3S,4R,5S)-N-(3,4-dichlorophenyl)-5-fluoro-3-(6-methylpyridin-3-yl)-7-oxabicyclo[2.2.1]heptane-2-carboxamide], for the setting “Homo sapiens”, the pEC50 is 4.57 and the Emax came out at 159%.

`O=C(Nc1cccc(C(F)(F)F)c1)[C@H]1[C@@H]2O[C@@H](C[C@H]2O)[C@@H]1c1ccncc1` [Example 89, (1S,2R,3S,4S,6R)-6-hydroxy-3-(pyridin-4-yl)-N-(3-(trifluoromethyl)phenyl)-7-oxabicyclo[2.2.1]heptane-2-carboxamide]: where the note is “Homo sapiens”, the pEC50 was below 4.30 and the Emax worked out at 0%.

Turning to `O=C(Nc1ccc(Cl)c(Cl)c1)[C@H]1[C@@H](c2cnc(F)nc2)[C@H]2O[C@@H]1C[C@@H]2O` [Example 61, (1R,2S,3S,4R,5S)—N-(3,4-dichlorophenyl)-3-(2-fluoropyrimidin-5-yl)-5-hydroxy-7-oxabicyclo[2.2.1]heptane-2-carboxamide], where the note is “Homo sapiens”, the pEC50 is below 4.30 and the Emax turned out to be 24%.

As to `Cc1cc([C@H]2[C@H]3O[C@H](C[C@@H]3F)[C@H]2C(=O)Nc2cnc(Cl)c(Cl)c2)ccn1` [Example 18, (1R,2S,3S,4R,5S)-N-(5,6-dichloropyridin-3-yl)-5-fluoro-3-(2-methylpyridin-4-yl)-7-oxabicyclo[2.2.1]heptane-2-carboxamide], where the note is “Homo sapiens”, the pEC50 was below 4.30 and the Emax worked out at 0%.

`Cc1cc([C@H]2[C@H]3O[C@H](C[C@H]3F)[C@@H]2C(=O)Nc2ccc(OC(F)(F)F)c(F)c2)ccn1` [Example 100, (1R,2R,3S,4R,5R)-5-fluoro-N-(3-fluoro-4-(trifluoromethoxy)phenyl)-3-(2-methylpyridin-4-yl)-7-oxabicyclo[2.2.1]heptane-2-carboxamide]: under “Homo sapiens”, the pEC50 was 4.74 and the Emax is 310%.

With `Cc1cc([C@H]2[C@H]3O[C@H](C[C@@H]3O)[C@H]2C(=O)Nc2cnc(Cl)c(Cl)c2)ccn1` [Example 6, (1R,2S,3S,4R,5S)-N-(5,-6-dichloropyridin-3-yl)-5-hydroxy-3-(2-methylpyridin-4-yl)-7-oxabicyclo[2.2.1]heptane-2-carboxamide], the “(A) % Efficacy” value worked out at 17% and the pEC50 is below 4.30.

`COc1ccc(NC(=O)[C@H]2[C@@H](c3ccnc(C)c3)[C@H]3O[C@@H]2C[C@H]3F)cn1` [Example 14, (1R,2S,3S,4R,5R)-5-fluoro-N-(6-methoxypyridin-3-yl)-3-(2-methylpyridin-4-yl)-7-oxabicyclo[2.2.1]heptane-2-carboxamide]: for the setting “Homo sapiens”, the pEC50 was 5.08 and the Emax was determined as 115%.

As for `COc1cc([C@H]2[C@H]3O[C@H]([C@@H]4C[C@@H]43)[C@@H]2C(=O)Nc2ccc(Cl)c(Cl)c2)ccn1` [Example 118, (1S,2S,4R,5R,6R,7S)—N-(3,4-dichlorophenyl)-7-(2-methoxypyridin-4-yl)-8-oxatricyclo[3.2.1.0^2,4]octane-6-carboxamide], for the setting “Homo sapiens”, the pEC50 was 5.09 and the Emax was 118%.

For the molecule `Cc1cc([C@H]2[C@H]3O[C@H](C[C@H]3F)[C@H]2C(=O)Nc2cccc(C(F)(F)F)c2)ccn1` [Example 15, (1R,2S,3S,4R,5R)-5-fluoro-3-(2-methylpyridin-4-yl)-N-[3-(trifluoromethyl)phenyl]-7-oxabicyclo[2.2.1]heptane-2-carboxamide], where the note is “Homo sapiens”, the pEC50 was below 4.30 and the Emax stood at 0%.

Consider `O=C(Nc1ccc(Cl)c(Cl)c1)[C@H]1[C@@H](c2ccnc(F)c2)[C@H]2O[C@@H]1C[C@@H]2F` [Example 22, (1R,2S,3S,4R,5S)-N-(3,4-dichlorophenyl)-5-fluoro-3-(2-fluoropyridin-4-yl)-7-oxabicyclo[2.2.1]heptane-2-carboxamide], for which, for the setting “Homo sapiens”, the pEC50 was 5.38 and the Emax is 128%.

`Cc1cc([C@H]2[C@H]3O[C@H](C[C@@H]3O)[C@H]2C(=O)Nc2cc(Cl)c(Cl)cn2)ccn1` [Example 4, (1R,2S,3S,4R,5S)-N-(4,5-dichloropyridin-2-yl)-5-hydroxy-3-(2-methylpyridin-4-yl)-7-oxabicyclo[2.2.1]heptane-2-carboxamide]: under “Homo sapiens”, the negative logarithm of the EC50 (pEC50) was below 4.30 and the Emax stood at 28%.

With `O=C(Nc1cnc(Cl)c(Cl)c1)[C@@H]1[C@H]2O[C@H]([C@@H]3C[C@@H]32)[C@H]1c1ccnc(F)c1F` (single isomer, unassigned) [Example 73], under “Homo sapiens”, the pEC50 was 4.80 and the Emax amounted to 127%.

In the case of `Cc1cc([C@@H]2[C@@H](C(=O)Nc3ccc(Cl)c(Cl)c3)[C@@H]3O[C@H]2C[C@@H]3F)ccn1` (single isomer, unassigned) [Example 93], under “Homo sapiens”, the pEC50 was below 4.30 and the Emax amounted to 7%.

Regarding `O=C(Nc1ccc(Cl)c(Cl)c1)[C@H]1[C@@H]2O[C@@H]([C@H]3C[C@H]32)[C@@H]1c1ccnc(F)c1F` (single isomer, unassigned) [Example 122a], for the setting “Homo sapiens”, the pEC50 was 4.60 and the Emax was 160%.

Regarding `Cc1cc([C@H]2[C@H]3O[C@H](C[C@@H]3F)[C@H]2C(=O)Nc2cccc(C(F)(F)F)c2)ccn1` [Example 17, (1R,2S,3S,4R,5S)-5-fluoro-3-(2-methylpyridin-4-yl)-N-[3-(trifluoromethyl)phenyl]-7-oxabicyclo[2.2.1]heptane-2-carboxamide], under “Homo sapiens”, the pEC50 is below 4.30 and the Emax came out at 0%.

For `COc1ccc(NC(=O)[C@H]2[C@@H]3O[C@@H]([C@H]4C[C@H]43)[C@@H]2c2ccnc(F)c2F)cn1` [Example 127, (1S,2S,4R,5R,6R,7S)-7-(2,3-difluoropyridin-4-yl)-N-(6-methoxypyridin-3-yl)-8-oxatricyclo[3.2.1.0^2,4]octane-6-carboxamide], where the note is “Homo sapiens”, the pEC50 is below 4.30 and the Emax turned out to be 62%.

With `CN[C@@H]1C[C@H]2O[C@@H]1[C@H](c1ccnc(F)c1)[C@H]2C(=O)Nc1ccc(Cl)c(Cl)c1` [Example 171, (1R,2R,3S,4R,5R)—N-(3,4-dichlorophenyl)-3-(2-fluoropyridin-4-yl)-5-(methylamino)-7-oxabicyclo[2.2.1]heptane-2-carboxamide], under “Homo sapiens”, the pEC50 is 4.62 and the Emax came out at 237%.

For `Cc1cc([C@@H]2[C@@H]3O[C@@H]([C@H]4C[C@H]43)[C@H]2C(=O)Nc2cccc(C(F)(F)F)c2)ccn1` (single isomer, unassigned) [Example 121b], under “Homo sapiens”, the pEC50 is 4.66 and the Emax was determined as 92%.

`O=C(Nc1ccc(Cl)c(Cl)c1)[C@H]1[C@@H]2O[C@@H]([C@H]3C[C@H]32)[C@@H]1c1ccncc1` [Example 137, (1S,2S,4R,5R,6R,7S)—N-(3,4-dichlorophenyl)-7-(pyridin-4-yl)-8-oxatricyclo[3.2.1.0^2,4]octane-6-carboxamide]: for the setting “Homo sapiens”, the pEC50 was 4.68 and the Emax was 202%.

Turning to `O=C(Nc1cnc(Cl)c(Cl)c1)[C@H]1[C@@H]2O[C@@H]([C@H]3C[C@H]32)[C@@H]1c1ccnc(F)c1F` (single isomer, unassigned) [Example 72], for the setting “Homo sapiens”, the pEC50 was 5.11 and the Emax was determined as 208%.

In the case of `COc1cc([C@H]2[C@H]3O[C@H]([C@@H]4C[C@@H]43)[C@H]2C(=O)Nc2cnc(Cl)c(Cl)c2)ccn1` [Example 1, (1S,2S,4R,5R,6S,7S)—N-(5,6-dichloropyridin-3-yl)-7-(2-methoxypyridin-4-yl)-8-oxatricyclo[3.2.1.0^2,4]octane-6-carboxamide], for the setting “Homo sapiens”, the pEC50 is 5.47 and the Emax is 164%.

`O=C(Nc1ccc(Cl)c(Cl)c1)[C@H]1[C@@H](c2cccc(C(F)(F)F)n2)[C@H]2O[C@@H]1C[C@@H]2O` [Example 50, (1R,2S,3S,4R,5S)—N-(3,4-dichlorophenyl)-5-hydroxy-3-(6-(trifluoromethyl)pyridin-2-yl)-7-oxabicyclo[2.2.1]heptane-2-carboxamide]: where the note is “Homo sapiens”, the pEC50 is 4.68 and the Emax stood at 308%.

For `Cc1cc([C@H]2[C@H]3O[C@H](C[C@H]3F)[C@@H]2C(=O)Nc2ccn(C)n2)ccn1` [Example 101, (1R,2R,3S,4R,5R)-5-fluoro-N-(1-methyl-1H-pyrazol-3-yl)-3-(2-methylpyridin-4-yl)-7-oxabicyclo[2.2.1]heptane-2-carboxamide], under “Homo sapiens”, the pEC50 is 4.54 and the Emax was determined as 62%.

Consider `CO[C@H]1C[C@H]2O[C@@H]1[C@H](c1ccnc(C)c1)[C@@H]2C(=O)Nc1ccc(Cl)c(Cl)c1` [Example 63, (1R,2S,3S,4R,5S)—N-(3,4-dichlorophenyl)-5-methoxy-3-(2-methylpyridin-4-yl)-7-oxabicyclo[2.2.1]heptane-2-carboxamide], for which, where the note is “Homo sapiens”, the pEC50 was below 4.30 and the Emax was determined as 9%.

On to `O=C(Nc1ccc(Cl)c(Cl)c1)[C@@H]1[C@@H]2O[C@@H]([C@H]3C[C@H]32)[C@@H]1c1ccncc1` [Example 44, (1S,2S,4R,5R,6S,7S)—N-(3,4-dichlorophenyl)-7-(pyridin-4-yl)-8-oxatricyclo[3.2.1.0^2,4]octane-6-carboxamide], for which, under “Homo sapiens”, the negative logarithm of the EC50 (pEC50) is below 4.30 and the Emax came out at 0%.

For the molecule `Cc1ncc([C@H]2[C@H]3O[C@H]([C@@H]4C[C@@H]43)[C@@H]2C(=O)Nc2ccc(Cl)c(Cl)c2)cn1` [Example 135, (1S,2S,4R,5R,6R,7S)—N-(3,4-dichlorophenyl)-7-(2-methylpyrimidin-5-yl)-8-oxatricyclo[3.2.1.0^2,4]octane-6-carboxamide], under “Homo sapiens”, the pEC50 is 4.80 and the Emax is 237%.
